Consider 20 compounds from the supplement of paper PMC11368000.

The subject of one test is 30171 (donor line of iPSC-derived cardiomyocytes). Briefly: POD (EC95) for loss of peak frequency (asystole) vs vehicle; higher = less potent (higher point of departure). Conditions: exposure time: 90 min. The method, then:
(§1)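 Human iPSC-derived cardiomyocytes from 16 donors were exposed for 90 min at 37 °C to each PFAS at 0.1, 1, 10 and 100 µM in 0.5% DMSO, 384-well plates. Kinetic Ca2+ flux (FLIPR) and Hoechst nuclei counts were normalised to vehicle wells and fitted with a hierarchical Bayesian Hill model to give donor-specific PODs: EC05 for beat-rate increase or decrease and for decay-to-rise ratio increase (QT proxy), EC95 for peak-frequency loss (asystole), EC10 for total cell number loss. 0.03 µM is the lower bound.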
In the case of `O=S(=O)(O)CCC(F)(F)C(F)(F)C(F)(F)C(F)(F)C(F)(F)C(F)(F)C(F)(F)C(F)(F)F` [8:2 Fluorotelomer sulfonic acid], the POD vs vehicle is > 100 µM.
`O=C(O)C(F)(F)C(F)(F)C(F)(F)C(F)(F)C(F)(F)C(F)(F)C(F)(F)C(F)(F)Cl` [9-Chloro-perfluorononanoic_acid]: the POD vs vehicle worked out at 44.1 µM.
Consider `O=P(O)(O)CCC(F)(F)C(F)(F)C(F)(F)C(F)(F)C(F)(F)C(F)(F)C(F)(F)C(F)(F)F` [((Perfluorooctyl)ethyl)phosphonic_acid], for which the POD vs vehicle is > 100 µM.
Same read-out and setting: next, `O=C([O-])C(F)(F)C(F)(F)C(F)(F)C(F)(F)C(F)(F)C(F)(F)C(F)(F)F.[NH4+]` [Ammonium_perfluorooctanoate]: > 100 µM; `OCC(F)(F)C(F)(F)C(F)(F)C(F)(F)C(F)(F)C(F)F` [Dodecafluoroheptanol]: 51.8 µM.
For the compound `OCC(F)(F)OC(F)(F)C(F)(F)OC(F)(F)C(F)(F)OC(F)(F)F` [Fluorinated_triethylene_glycol_monomethyl_ether], the POD vs vehicle is > 100 µM.
The same measure, in the same setting: next, `OCC(F)(F)C(F)(F)C(F)(F)F` [Heptafluorobutanol]: > 100 µM; `NC(=O)C(F)(F)C(F)(F)C(F)(F)F` [Heptafluorobutyramide]: > 100 µM; `OCC(F)(F)C(F)(F)C(F)(F)CO` [Hexafluoroamylene_glycol]: > 100 µM.
For `COC(=O)C(F)(F)C(F)(F)OC(F)(C(F)(F)F)C(F)(F)OC(F)=C(F)F` (stereo not given) [Methyl_perfluoro(3-(1-ethenyloxypropan-2-yloxy)propanoate)], the POD vs vehicle was > 100 µM.
Same read-out and setting: in the case of `NC(=O)C(F)(F)C(F)(F)C(F)(F)C(F)(F)F` [Nonafluoropentanamide] it was > 100 µM; in that of `NC(=O)C(F)(F)C(F)(F)C(F)(F)C(F)(F)C(N)=O` [Octafluoroadipamide], > 100 µM; in that of `O=C(O)C(F)(F)C(F)(F)C(F)(F)C(F)(F)C(=O)O` [Octafluoroadipic_acid], > 100 µM.
Consider `O=C(O)C(F)(F)C(F)(F)C(F)(F)OC(F)(F)F` [Perfluoro(4-methoxybutanoic)_acid], for which the POD vs vehicle is > 100 µM.
The same measure, in the same setting: in the case of `O=C(O)C(F)(F)OC(F)(F)C(F)(F)OC(F)(F)C(F)(F)OC(F)(F)C(F)(F)C(F)(F)C(F)(F)F` [Perfluoro-3,6,9-trioxatridecanoic_acid] it was 73 µM; in that of `O=C(O)C(F)(F)OC(F)(F)C(F)(F)OC(F)(F)F` [Perfluoro-3,6-dioxaheptanoic_acid], > 100 µM; in that of `O=C(O)C(F)(F)OC(F)(F)C(F)(F)OC(F)(F)C(=O)O` [Perfluoro-3,6-dioxaoctane-1,8-dioic_acid], > 100 µM.
Turning to `O=C(O)C(F)(F)C(F)(F)OC(F)(F)F` [Perfluoro-3-methoxypropanoic_acid], the POD vs vehicle is > 100 µM.
The same measure, in the same setting: in the case of `O=C(O)C(F)(F)C(F)(F)C(F)(F)OC(F)(C(F)(F)F)C(F)(F)F` [Perfluoro-4-isopropoxybutanoic_acid] it was > 100 µM; in that of `O=S(=O)(O)C(F)(F)C(F)(F)C(F)(F)C(F)(F)F` [Perfluorobutanesulfonic_acid], > 100 µM.

Another test deals with 1309 (donor line of iPSC-derived cardiomyocytes). The test can be described thus: POD (EC05) for increase in Ca2+ transient decay-to-rise ratio (QT prolongation) vs vehicle; higher = less potent (higher point of departure). Conditions: exposure time: 90 min. The method, then:
as §1
For the compound `O=S(=O)(O)CCC(F)(F)C(F)(F)C(F)(F)C(F)(F)C(F)(F)C(F)(F)C(F)(F)C(F)(F)F` [8:2 Fluorotelomer sulfonic acid], the POD vs vehicle is > 100 µM.
On the same count and under the same terms, in the case of `O=C(O)C(F)(F)C(F)(F)C(F)(F)C(F)(F)C(F)(F)C(F)(F)C(F)(F)C(F)(F)Cl` [9-Chloro-perfluorononanoic_acid] it was > 100 µM.
As to `O=P(O)(O)CCC(F)(F)C(F)(F)C(F)(F)C(F)(F)C(F)(F)C(F)(F)C(F)(F)C(F)(F)F` [((Perfluorooctyl)ethyl)phosphonic_acid], the POD vs vehicle was > 100 µM.
Turning to `O=C([O-])C(F)(F)C(F)(F)C(F)(F)C(F)(F)C(F)(F)C(F)(F)C(F)(F)F.[NH4+]` [Ammonium_perfluorooctanoate], the POD vs vehicle was > 100 µM.
`OCC(F)(F)C(F)(F)C(F)(F)C(F)(F)C(F)(F)C(F)F` [Dodecafluoroheptanol]: the POD vs vehicle is > 100 µM.
Still for that read-out and setting: next, `OCC(F)(F)OC(F)(F)C(F)(F)OC(F)(F)C(F)(F)OC(F)(F)F` [Fluorinated_triethylene_glycol_monomethyl_ether]: > 100 µM; `OCC(F)(F)C(F)(F)C(F)(F)F` [Heptafluorobutanol]: > 100 µM; `NC(=O)C(F)(F)C(F)(F)C(F)(F)F` [Heptafluorobutyramide]: > 100 µM.
On the same count and under the same terms, in the case of `OCC(F)(F)C(F)(F)C(F)(F)CO` [Hexafluoroamylene_glycol] it was > 100 µM; in that of `COC(=O)C(F)(F)C(F)(F)OC(F)(C(F)(F)F)C(F)(F)OC(F)=C(F)F` (stereo not given) [Methyl_perfluoro(3-(1-ethenyloxypropan-2-yloxy)propanoate)], > 100 µM; in that of `NC(=O)C(F)(F)C(F)(F)C(F)(F)C(F)(F)F` [Nonafluoropentanamide], > 100 µM.
Still for that read-out and setting: in the case of `NC(=O)C(F)(F)C(F)(F)C(F)(F)C(F)(F)C(N)=O` [Octafluoroadipamide] it was > 100 µM.
Take `O=C(O)C(F)(F)C(F)(F)C(F)(F)C(F)(F)C(=O)O` [Octafluoroadipic_acid]: the POD vs vehicle was > 100 µM.
Still for that read-out and setting: next, `O=C(O)C(F)(F)C(F)(F)C(F)(F)OC(F)(F)F` [Perfluoro(4-methoxybutanoic)_acid]: > 100 µM.
On the same count and under the same terms, in the case of `O=C(O)C(F)(F)OC(F)(F)C(F)(F)OC(F)(F)C(F)(F)OC(F)(F)C(F)(F)C(F)(F)C(F)(F)F` [Perfluoro-3,6,9-trioxatridecanoic_acid] it was > 100 µM.
`O=C(O)C(F)(F)OC(F)(F)C(F)(F)OC(F)(F)F` [Perfluoro-3,6-dioxaheptanoic_acid]: the POD vs vehicle is > 100 µM.
With `O=C(O)C(F)(F)OC(F)(F)C(F)(F)OC(F)(F)C(=O)O` [Perfluoro-3,6-dioxaoctane-1,8-dioic_acid], the POD vs vehicle was > 100 µM.
The same measure, in the same setting: next, `O=C(O)C(F)(F)C(F)(F)OC(F)(F)F` [Perfluoro-3-methoxypropanoic_acid]: > 100 µM; `O=C(O)C(F)(F)C(F)(F)C(F)(F)OC(F)(C(F)(F)F)C(F)(F)F` [Perfluoro-4-isopropoxybutanoic_acid]: > 100 µM; `O=S(=O)(O)C(F)(F)C(F)(F)C(F)(F)C(F)(F)F` [Perfluorobutanesulfonic_acid]: > 100 µM.

The test system of a further test is 1434 (donor line of iPSC-derived cardiomyocytes). The test is described as above. The settings on record: exposure time: 90 min. On the procedure: as §1
For `O=S(=O)(O)CCC(F)(F)C(F)(F)C(F)(F)C(F)(F)C(F)(F)C(F)(F)C(F)(F)C(F)(F)F` [8:2 Fluorotelomer sulfonic acid], the POD vs vehicle turned out to be 17.2 µM.
For the compound `O=C(O)C(F)(F)C(F)(F)C(F)(F)C(F)(F)C(F)(F)C(F)(F)C(F)(F)C(F)(F)Cl` [9-Chloro-perfluorononanoic_acid], the POD vs vehicle was > 100 µM.
On the same count and under the same terms, in the case of `O=P(O)(O)CCC(F)(F)C(F)(F)C(F)(F)C(F)(F)C(F)(F)C(F)(F)C(F)(F)C(F)(F)F` [((Perfluorooctyl)ethyl)phosphonic_acid] it was > 100 µM; in that of `O=C([O-])C(F)(F)C(F)(F)C(F)(F)C(F)(F)C(F)(F)C(F)(F)C(F)(F)F.[NH4+]` [Ammonium_perfluorooctanoate], > 100 µM; in that of `OCC(F)(F)C(F)(F)C(F)(F)C(F)(F)C(F)(F)C(F)F` [Dodecafluoroheptanol], > 100 µM.
On to `OCC(F)(F)OC(F)(F)C(F)(F)OC(F)(F)C(F)(F)OC(F)(F)F` [Fluorinated_triethylene_glycol_monomethyl_ether], for which the POD vs vehicle is > 100 µM.
Still for that read-out and setting: in the case of `OCC(F)(F)C(F)(F)C(F)(F)F` [Heptafluorobutanol] it was > 100 µM; in that of `NC(=O)C(F)(F)C(F)(F)C(F)(F)F` [Heptafluorobutyramide], > 100 µM; in that of `OCC(F)(F)C(F)(F)C(F)(F)CO` [Hexafluoroamylene_glycol], > 100 µM.
Still for that read-out and setting: next, `COC(=O)C(F)(F)C(F)(F)OC(F)(C(F)(F)F)C(F)(F)OC(F)=C(F)F` (stereo not given) [Methyl_perfluoro(3-(1-ethenyloxypropan-2-yloxy)propanoate)]: > 100 µM.
